Data taken from paper PMC7006908 (PLoS ONE, 2020).
Where “and” joins values, the source holds several entries; their conditions need not be identical. Identical values can stand only once. Like-named read-outs stand apart in the source and are kept apart here.

Experiments:
[1] = Stability of deproteinized QCs in autosampler at 4 °C; format: physicochemical; conditions: for Acc. %, T = 72 h in autosampler (4°C): % of nominal
Description: (§1) Stability tests were conducted using QCs prepared in triplicate at each concentration (L, M, H): bench-top stability was investigated after 4 h at room temperature; stability of the deproteinized QCs was evaluated in autosampler set at 4 °C re-analysing the samples 24, 48, and 72 h after the first injection; freeze/thaw stability was assessed by analysing three freshly prepared aliquots of each QCs concentration, and then again after one and two freeze/thaw cycles.

[2] = Long term stability of working solutions in methanol at -20°C; format: physicochemical; conditions: for Acc. %, stored at -20ºC over 2 months (methanol): % of nominal
[3] = LC-MS/MS quantification of Cmin in plasma samples from breast cancer patients (clinical study CRO-2018-83); format: in vivo, human; conditions: for concentration at 25 h / concentration at 1 week / concentration at 15 h / concentration at 30 h: human, plasma, oral; for concentration at 25 h / concentration at 1 week: 125 mg/day; for concentration at 25 h: patient 2, sample 3, PALBO 125 mg/day; for concentration at 1 week: patient 3, sample 4, PALBO 125 mg/day; for concentration at 15 h: patient 7, sample 9, PALBO 125 mg/day; for concentration at 30 h: patient 8, sample 10, RIBO 600 mg/day + LETRO 2.5 mg/day
Description: Preparation of calibration curve and QCs samples was conducted through the following steps: 1) 5 μL of working solutions were added to 95 μL of blank human plasma (dilution 1:20) and vortexed for 10 s; 2) a 10 μL-aliquot of this mix was added with 80 μL of cold IS working solution (see “Standard solutions preparation” section), vortexed and then centrifuged for 15 min at 16200 g and 4°C; 3) 70 μL of the supernatant were transferred to a polypropylene tube for the following analysis. […] The preparation of patients’ samples was conducted as following: patient plasma was thawed at room temperature, vortexed for 10 s and centrifuged, for 10 min, at 3000 g and 4°C; 10 μL of plasma was then treated according to steps 2) and 3).
The HPLC system was a SIL-20AC XR auto-sampler and LC-20AD UFLC XR pumps (Shimadzu, Tokyo, Japan). The mobile phases (MP) consisted of ultrapure water with 0.1% HCOOH (phase A) and methanol/isopropanol (9:1, v/v) with 0.1% HCOOH (phase B). The chromatographic separation was obtained on the Luna Omega Polar C18 column ([…], 100 Å, 50 x 2.1 mm) coupled with a Security Guard Cartridge (Polar, C18, 4 x 2.0 mm), both provided by Phenomenex (Castel Maggiore (BO), Italy). The mass spectrometry system used for the detection was an API 4000 triple quadrupole (AB SCIEX, Massachusetts, USA) with a TurboIonSpray source operating in positive ion mode. To optimize source and compound dependent parameters, solutions of each analyte at the concentration of 100 ng/mL were used with a flow rate of 20 μL/min. Data were processed with Analyst 1.6.3 and the quantification of the peaks was done with MultiQuant 2.1 (software package AB SCIEX).
The exclusion criteria were to be non-collaborative and/or unreliable patients and refusal of informed consent. Patients were asked to periodically (every two months) collect plasma samples for the estimation of PALBO or RIBO and/or LETRO Cmin during their therapy treatment.
Plasma was obtained immediately by centrifugation of the blood samples at 3000 g for 10 min at 4°C. Then the obtained plasma was split into two independent aliquots and stored at -80°C in two different freezers.
At present, each of the 10 patients’ samples collected were quantified in 2 separate runs during 2 different working days, to further assess the reproducibility of the proposed method. In fact, as recently introduced in the last version of the FDA guideline, incurred samples re-analysis (ISR) is necessary to show the reliability of the reported analyte concentrations obtained with a bioanalytical method. ISR is conducted by repeating the analysis of a subset of patients’ samples in separate runs. The two analyses can be considered equivalent if the percentage difference [expressed as: (repeat-original)*100/mean] between the first and the second concentration measured is within ±20% for at least 67% of the samples [23, 24].

[4] = patients, cited from earlier work
[5] = Long term stability in human plasma at -80°C; format: in vitro ADME; conditions: for Acc. %, stored at -80ºC over 2 months (plasma): % of nominal
[6] = Bench-top stability in human plasma, 4 h at room temperature; format: in vitro ADME
Description: as §1

[7] = deproteinized QC high: nominal 200.00 PALBO / 8000.00 RIBO / 400.00 LETRO ng/mL
[8] = deproteinized QC low: nominal 0.50 PALBO / 20.00 RIBO / 1.00 LETRO ng/mL
[9] = deproteinized QC medium: nominal 20.00 PALBO / 800.00 RIBO / 40.00 LETRO ng/mL
[10] = QC high: nominal 200.00 PALBO / 8000.00 RIBO / 400.00 LETRO ng/mL
[11] = QC low: nominal 0.50 PALBO / 20.00 RIBO / 1.00 LETRO ng/mL
[12] = QC medium: nominal 20.00 PALBO / 800.00 RIBO / 40.00 LETRO ng/mL
[13] = reanalysis in second run, read-out: II quantif. plasma concentration (Cmin)

SMILES: CC(=O)c1c(C)c2cnc(Nc3ccc(N4CCNCC4)cn3)nc2n(C2CCCC2)c1=O [PALBO, Palbociclib]
- Mean ± SD measured concentration, T = 72 h in autosampler (4°C) [1, 7]: 215.60 ± 8.28 ng/mL
- Acc. %, T = 72 h in autosampler (4°C) [1, 7]: 107.8%
- Mean ± SD measured concentration, T = 72 h in autosampler (4°C) [1, 8]: 0.54 ± 0.02 ng/mL
- Acc. %, T = 72 h in autosampler (4°C) [1, 8]: 108.2%
- Mean ± SD measured concentration, T = 72 h in autosampler (4°C) [1, 9]: 21.10 ± 1.23 ng/mL
- Acc. %, T = 72 h in autosampler (4°C) [1, 9]: 105.5%
- Mean ± SD measured concentration, stored at -20ºC over 2 months (methanol) [2, 10]: 219.18 ± 9.46 ng/mL
- Acc. %, stored at -20ºC over 2 months (methanol) [2, 10]: 109.6%
- Mean ± SD measured concentration, stored at -20ºC over 2 months (methanol) [2, 11]: 0.52 ± 0.02 ng/mL
- Mean ± SD measured concentration, stored at -20ºC over 2 months (methanol) [2, 12]: 22.43 ± 0.63 ng/mL
- concentration at 25 h ([3]; 25 h from last capsule intake, read-out: I quantif. plasma concentration (Cmin)): 77.5 ng/mL
- concentration at 25 h [3, 13]: 82.4 ng/mL
- concentration at 1 week ([3]; last PALBO intake 1 week before sampling, read-out: I quantif. plasma concentration (residual)): 1.6 ng/mL
- concentration at 1 week ([3]; last intake 1 week before sampling, reanalysis in second run, read-out: II quantif. plasma concentration (residual)): 1.5 ng/mL
- concentration at 15 h ([3]; LETRO 2.5 mg/day, last pill intake 15 h before sampling, read-out: I quantif. plasma concentration (Cmin)): 97.9 ng/mL
- concentration at 15 h ([3]; LETRO 2.5 mg/day, reanalysis in second run, read-out: II quantif. plasma concentration (Cmin)): 96.2 ng/mL
- I quantif. plasma concentration (Cmin) ([3]; patient 1, sample 1, PALBO 125 mg/day): 53.0 ng/mL
- II quantif. plasma concentration (Cmin) ([3]; patient 1, sample 1, PALBO 125 mg/day, reanalysis in second run): 55.9 ng/mL
- I quantif. plasma concentration (Cmin) ([3]; patient 2, sample 2, PALBO 125 mg/day): 76.9 ng/mL
- II quantif. plasma concentration (Cmin) ([3]; patient 2, sample 2, PALBO 125 mg/day, reanalysis in second run): 84.2 ng/mL
- I quantif. plasma concentration (Cmin) ([3]; patient 4, sample 5, PALBO 100 mg/day): 70.7 ng/mL
- II quantif. plasma concentration (Cmin) ([3]; patient 4, sample 5, PALBO 100 mg/day, reanalysis in second run): 74.3 ng/mL
- I quantif. plasma concentration (Cmin) ([3]; patient 5, sample 6, PALBO 125 mg/day): 39.5 ng/mL
- II quantif. plasma concentration (Cmin) ([3]; patient 5, sample 6, PALBO 125 mg/day, reanalysis in second run): 43.0 ng/mL
- I quantif. plasma concentration (Cmin) ([3]; patient 5, sample 7, PALBO 125 mg/day): 41.5 ng/mL
- II quantif. plasma concentration (Cmin) ([3]; patient 5, sample 7, PALBO 125 mg/day, reanalysis in second run): 46.1 ng/mL
- I quantif. plasma concentration (Cmin) ([3]; patient 6, sample 8, PALBO 125 mg/day, LETRO 2.5 mg/day): 69.7 ng/mL
- II quantif. plasma concentration (Cmin) ([3]; patient 6, sample 8, PALBO 125 mg/day, LETRO 2.5 mg/day, reanalysis in second run): 74.0 ng/mL

SMILES: CN(C)C(=O)c1cc2cnc(Nc3ccc(N4CCNCC4)cn3)nc2n1C1CCCC1 [RIBO, ribociclib]
- in vivo RIBO plasma concentration (CV), Cmin, population mean ([4]; 20 (ref 19)): 711 ng/mL and 711 (72.9) ng/mL
- in vivo RIBO plasma concentration (CV), upper end of range [4]: 3500 (65.8) ng/mL
- Mean ± SD measured concentration, T = 72 h in autosampler (4°C) [1, 7]: 8274.93 ± 207.29 ng/mL
- Acc. %, T = 72 h in autosampler (4°C) [1, 7]: 103.4%
- Mean ± SD measured concentration, T = 72 h in autosampler (4°C) [1, 8]: 21.24 ± 1.45 ng/mL
- Acc. %, T = 72 h in autosampler (4°C) [1, 8]: 106.2%
- Mean ± SD measured concentration, T = 72 h in autosampler (4°C) [1, 9]: 815.31 ± 36.72 ng/mL
- Acc. %, T = 72 h in autosampler (4°C) [1, 9]: 101.9%
- Mean ± SD measured concentration, stored at -20ºC over 2 months (methanol) [2, 10]: 8522.63 ± 68.65 ng/mL
- Acc. %, stored at -20ºC over 2 months (methanol) [2, 10]: 106.5%
- Mean ± SD measured concentration, stored at -20ºC over 2 months (methanol) [2, 11]: 19.52 ± 0.30 ng/mL
- Acc. %, stored at -20ºC over 2 months (methanol) [2, 11]: 97.6%
- Mean ± SD measured concentration, stored at -20ºC over 2 months (methanol) [2, 12]: 885.44 ± 35.25 ng/mL
- Acc. %, stored at -20ºC over 2 months (methanol) [2, 12]: 110.7%
- Mean ± SD measured concentration, stored at -80ºC over 2 months (plasma) [5, 10]: 7699.21 ± 117.73 ng/mL
- Acc. %, stored at -80ºC over 2 months (plasma) [5, 10]: 96.2%
- Mean ± SD measured concentration, stored at -80ºC over 2 months (plasma) [5, 11]: 21.10 ± 1.05 ng/mL
- Acc. %, stored at -80ºC over 2 months (plasma) [5, 11]: 105.5%
- Mean ± SD measured concentration, stored at -80ºC over 2 months (plasma) [5, 12]: 789.37 ± 28.89 ng/mL
- Acc. %, stored at -80ºC over 2 months (plasma) [5, 12]: 98.7%
- Mean ± SD measured concentration, T = 4h (RT) ([6]; plasma QC high: nominal 200.00 PALBO / 8000.00 RIBO / 400.00 LETRO ng/mL): 7218.92 ± 402.94 ng/mL
- Mean ± SD measured concentration, T = 4h (RT) ([6]; plasma QC low: nominal 0.50 PALBO / 20.00 RIBO / 1.00 LETRO ng/mL): 18.86 ± 0.74 ng/mL
- Mean ± SD measured concentration, T = 4h (RT) ([6]; plasma QC medium: nominal 20.00 PALBO / 800.00 RIBO / 40.00 LETRO ng/mL): 751.88 ± 27.56 ng/mL
- concentration at 30 h ([3]; 30 h from last pills intake, read-out: I quantif. plasma concentration (Cmin)): 396 ng/mL
- concentration at 30 h [3, 13]: 419 ng/mL
